From US20250228823A1, “PHARMACEUTICAL COMPOSITIONS COMPRISING (3-(1-(1H-IMIDAZOL-4-YL)ETHYL)-2-METHYLPHENYL)METHANOL” (Allergan, Inc., priority 2010, published 2025)

What was measured:
[1] = test system: Normotensive male Dutch-Belted rabbits (IOP); conditions: for IOP effect in the contralateral eye: single topical drop onto right eye, untreated eye
Experimental: The experimental animals used, were Normotensive male Dutch-Belted rabbits (Myrtle's Rabbitry) over 6 months in age (n=4/compound/dose screened). A single drop (50 μl) of the drug formulation, was administered topically by pipette onto the right eye (treated eye) at approximately 0700 hours. IOP of the rabbits (treated and untreated eyes) was measured 0 hours before and at 0.5, 1, 2, 3, 4, 6 and 8 hours after topical eyedrop administration. IOP at the time of eyedrop administration (0 hours) was used as a baseline value. Prior to the tonometric measurements, 0.05% proparacaine (50 μl) was administered to each eye. Tonometric IOP measurements were obtained with a Mentor Pneumontonmeter. Additionally, all studies were masked. At least 1 week of wash-out time was allowed for each rabbit between dosings. All animals were examined for sedation, ocular irritation, and changes in pupil diameter throughout the course of the experiments.

bovine a1A receptor = molecular target: T1, bovine a1A receptor (Bos taurus, UniProt P18130); assay: cell-based; conditions: for a1A efficacy: FLIPR agonist assay, HEK 293 cells, norepinephrine is the standard full agonist
T1 sequence (P18130 1-466): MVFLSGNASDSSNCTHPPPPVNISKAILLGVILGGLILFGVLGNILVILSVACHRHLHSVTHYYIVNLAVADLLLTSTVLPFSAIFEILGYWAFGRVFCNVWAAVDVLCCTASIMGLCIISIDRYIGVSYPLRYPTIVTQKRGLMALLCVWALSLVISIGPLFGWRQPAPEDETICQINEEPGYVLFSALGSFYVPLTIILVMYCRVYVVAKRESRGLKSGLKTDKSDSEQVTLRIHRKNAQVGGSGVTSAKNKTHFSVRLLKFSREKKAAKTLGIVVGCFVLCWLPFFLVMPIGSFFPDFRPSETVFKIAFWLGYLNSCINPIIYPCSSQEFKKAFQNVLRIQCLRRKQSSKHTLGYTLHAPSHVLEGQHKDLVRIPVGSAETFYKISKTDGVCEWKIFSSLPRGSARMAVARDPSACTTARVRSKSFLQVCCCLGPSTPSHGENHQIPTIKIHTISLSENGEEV
Experimental: (§1) HEK 293 cells stably expressing the bovine a1A receptor, human alpha 2A receptor and the chimeric G protein Gai5, are plated in poly-D-lysine coated 384-well plates at 20,000-40,000 cells per well and grown overnight in DMEM supplemented with 10% fetal bovine serum. For FLIPR (fluorometric image plate reader) evaluation, cells are washed twice with HBSS/HEPES Buffer (1× Hanks Buffered Salt Solution, 20 mM HEPES, pH 7.4) prior to the addition of Fluo-4-AM (4 uM Fluo-4-AM, 0.04% pluronic acid in HBSS/HEPES Buffer), a calcium-sensitive dye. Cells are loaded with dye for 40 minutes at 37° C., then washed 4 times with HBSS/HEPES Buffer. For both the agonist and antagonist assay, the test compounds are tested between 0.64 nM-10,000 nM. For an agonist assay, the reaction is initiated by the addition of the appropriate dilutions of compounds and the transient calcium signal captured. The peak height of the calcium curve is determined and utilized for calculation of EC50 and efficacy using ActivityBase. Norepinephrine is the standard full agonist used for evaluating alpha-1 and alpha-2 receptor activity.

human alpha 2A receptor = molecular target: T2, human alpha 2A receptor (Homo sapiens, UniProt P08913); conditions: FLIPR agonist assay, HEK 293 cells with chimeric G protein; norepinephrine is the standard full agonist
T2 sequence (P08913 1-465): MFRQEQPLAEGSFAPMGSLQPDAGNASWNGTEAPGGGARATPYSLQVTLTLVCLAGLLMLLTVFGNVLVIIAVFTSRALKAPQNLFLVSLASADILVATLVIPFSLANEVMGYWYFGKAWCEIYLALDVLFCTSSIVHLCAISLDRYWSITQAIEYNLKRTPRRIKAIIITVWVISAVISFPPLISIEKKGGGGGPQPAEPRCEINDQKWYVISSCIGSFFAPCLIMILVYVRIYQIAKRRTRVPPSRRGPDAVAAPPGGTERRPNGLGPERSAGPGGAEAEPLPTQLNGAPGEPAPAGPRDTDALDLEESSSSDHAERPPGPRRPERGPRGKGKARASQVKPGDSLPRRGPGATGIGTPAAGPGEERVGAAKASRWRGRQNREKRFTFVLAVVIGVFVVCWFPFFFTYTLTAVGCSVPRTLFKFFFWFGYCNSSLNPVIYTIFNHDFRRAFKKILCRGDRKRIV
Experimental: as §1

`Brc1c(NC2=NCCN2)ccc2nccnc12` [Brimonidine, reference compound] was tested, and the “IOP effect at 6 hrs in the treated eye” value ([1]; 0.15%, single topical drop, DB Rabbits, 6 hrs) was “minimal”, the “IOP effect in the contralateral eye” value ([1]; DB Rabbits) was “strong contralateral effect” and the EC50 (bovine a1A receptor) was 600 to 2400 nM. It also gave an a1A efficacy (bovine a1A receptor) of 0.3 and an a2A efficacy (human alpha 2A receptor) of 0.95.
`Cc1c(CO)cccc1[C@H](C)c1c[nH]cn1` [Compound 1, (S)-[3-(1-(1H-imidazol-4-yl)ethyl)-2-methylphenyl] methanol] was tested, and the “duration of IOP lowering in the treated eye” value ([1]; 0.15% concentration, single topical drop (50 μl), DB Rabbits) was “at least 6 hours”, the “IOP lowering efficacy compared with brimonidine” value ([1]; FIG. 1) was “comparable efficacy to brimonidine” and the “intraocular pressure duration compared with brimonidine” value ([1]; FIG. 1) was “longer intraocular pressure duration than brimonidine”. For the same compound, the “IOP effect in the contralateral eye” value ([1]; DB Rabbits) was “very little effect”, the EC50 (bovine a1A receptor) was 340 to 2400 nM and the a1A efficacy (bovine a1A receptor) was 0.7. It also gave an a2A efficacy (human alpha 2A receptor) of 0.9.
